According to publication PMC7112222, “Investigation of pyrimidine nucleoside analogues as chemical probes to assess compound effects on the proliferation of Trypanosoma cruzi intracellular parasites” (PLoS Neglected Tropical Diseases, 2020):
Like-named read-outs stand apart in the source and are kept apart here.

Assays:
HEK293 cells [1] = assay: Redox-based assay to assess HEK293 viability; type: cell-based, human; details: Homo sapiens, HEK293, 48 hours exposure
Method: To determine the effect of the nucleoside analogues against a replicating mammalian cell line, analogues were tested against HEK293 cells, utilising a REDOX-based metabolic assay to assess cell viability as previously described. […] Experiments were performed over two biological replicates.

[2] = system: T. cruzi intracellular amastigotes; assay: Image-based assay of the number of T. cruzi infected cells (intracellular amastigotes in 3T3 host cells); type: cell-based, Trypanosoma cruzi; details: 2 and 4 hour exposures; 73 μM
L. donovani = system: L. donovani; design: method as in PMID 27021313; details: 72 hours incubation; cited from earlier work
HEK293 cells [3] = details: read-out: IC50 value, cytotoxicity against HEK293 cells; 72 hours exposure; cited from earlier work

C#Cc1cn([C@H]2C[C@H](O)[C@@H](CO)O2)c(=O)[nH]c1=O [EdU, 5-ethynyl-2′-deoxy-uridine]
IC50 (HEK293 cells [1]; highest test concentration 87 μM, EdU value estimated, relative to Emax plateau of 57%): 670 ± 260 nM
Emax (HEK293 cells [1]; read-out: plateau of activity (Emax) against HEK293 cells): 57%
activity against T. cruzi amastigote growth after short exposure [2]: less than 20%
toxicity toward L. donovani (L. donovani): lack of toxicity
IC50 (HEK293 cells [3]): 60 ± 43 nM
